Results as given in US7998978B2 (Pfizer Inc., priority 2006, dated 2011).

biological target: T1, JNK1α1 (Homo sapiens, UniProt P45983); experiment: Coupled spectrophotometric (PK/LDH) JNK1α1 assay: % inhibition and Ki determination; type: biochemical; details: JNK-1
T1 construct: catalytic domain containing amino acids 1-364 and N-terminal hexahistidine tag; hexahistidine (His6) (N); made in house; host or cells: E. coli BL21 (DE3)
Protocol: % Inhibition and Ki Determination
A coupled spectrophotometric assay, coupling JNK1α1 activity to the oxidation of β-NADH to NAD+ through the action of pyruvate kinase (PK) and lactic dehydrogenase (LDH), was used to determine the potency (percent inhibition at 1 or 10 μM or Ki) of compounds against JNK1α1 (Genbank Accession Number: L26318). […] The reaction was monitored by following the decrease in absorbance at 340 nm. The initial reaction rate was determined by the slope of the change in absorbance. To calculate percent inhibition the rate of the reaction in the presence of 1 or 10 μM compound was compared to the rate of the reaction with only DMSO multiplied by 100 percent. Note, the background rate of the above reaction in the presence of 10 μM PHA-00738186 was subtracted from all rates. […] Y=(−X+Eo−(Ki*(1+A/Km))+((X−Eo+(Ki*(1+A/Km)))^2+4*Eo*(Ki*(1+A/Km)))^0.5)*(Vm*A/(Km+A)/(2*Eo)) Formula: • Parameters: Eo, Ki, A, Km, Vo • Y is initial reaction velocity; • X is inhibitor concentration; • A is [ATP]; • Ki is inhibition constant; • Vm is Vmax; • Eo is total (initial) enzyme concentration; • Km is ATP Km;
The compounds were prepared in 100% DMSO at a 40× concentration. For percent inhibition experiments this would be 400 or 40 μM for 10 and 1 μM final concentration, respectively. For the Ki determination 3× serial dilutions were made starting at 4 mM (100 μM at 1×) in DMSO. A total of 11 concentrations were used for the analysis. The compounds were added to the reaction plate first. Next, a solution containing the HEPES, MgCl2, DTT, peptide substrate, NADH, PEP, PK/LDH enzyme, and JNK1α1—364nHis enzyme was added to the assay plate. The plate was incubated at room temperature for 15 minutes. Then the plate was warmed to 30° C. for 5 minutes. The reaction was initiated with the addition of ATP. The reaction was run in a plate reader at 30° C. for 20 minutes with absorbance readings made about every 10 seconds.
The column with “#” heading refers to compound number as exemplified in the Examples section. The column with “Ki” heading refers to Ki (in nM). The column with “% Inhibition” heading refers to percent inhibition of JNK-1 at 1 μM or 10 μM (in %) unless otherwise stated. ND refers to no data was taken.

T1 sequence (P45983 1-364): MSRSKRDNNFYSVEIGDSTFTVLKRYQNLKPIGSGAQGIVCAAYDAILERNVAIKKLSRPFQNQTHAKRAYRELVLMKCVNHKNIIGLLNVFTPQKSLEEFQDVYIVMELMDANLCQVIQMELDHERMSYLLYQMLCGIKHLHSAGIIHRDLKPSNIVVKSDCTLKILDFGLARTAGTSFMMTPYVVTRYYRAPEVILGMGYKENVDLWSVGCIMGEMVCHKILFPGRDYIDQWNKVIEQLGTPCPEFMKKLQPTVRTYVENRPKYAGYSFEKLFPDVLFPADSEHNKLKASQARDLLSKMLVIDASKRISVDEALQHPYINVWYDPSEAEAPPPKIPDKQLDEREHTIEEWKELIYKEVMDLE

Compound | Ki [nM]
CN(C)C(=O)c1ccc2cnc(N[C@H]3CC[C@H](O)CC3)nc2c1 [Example 59, 2-[(trans-4-hydroxycyclohexyl)amino]-N,N-dimethylquinazoline-7-carboxamide] | 4340
O=C(NC1CCS(=O)(=O)C1)c1ccc2cnc(N[C@H]3CC[C@H](O)CC3)nc2c1 (stereo partly drawn) [Example 60, N-(1,1-dioxidotetrahydro-3-thienyl)-2-[(trans-4-hydroxycyclohexyl)amino]quinazoline-7-carboxamide] | 157
O=C(NCCN1CCOCC1)c1ccc2cnc(N[C@H]3CC[C@H](O)CC3)nc2c1 [Example 61, 2-[(trans-4-hydroxycyclohexyl)amino]-N-(2-morpholin-4-ylethyl)quinazoline-7-carboxamide] | 525
O=C(NCc1ccccc1)c1ccc2cnc(N[C@H]3CC[C@H](O)CC3)nc2c1 [Example 62, N-benzyl-2-[(trans-4-hydroxycyclohexyl)amino]quinazoline-7-carboxamide] | 432
O=C(NCCc1ccccc1)c1ccc2cnc(N[C@H]3CC[C@H](O)CC3)nc2c1 [Example 63, 2-[(trans-4-hydroxycyclohexyl)amino]-N-(2-phenylethyl)quinazoline-7-carboxamide] | 460
CC(C)NC(=O)c1ccc2cnc(N[C@H]3CC[C@H](O)CC3)nc2c1 [Example 64, 2-[(trans-4-hydroxycyclohexyl)amino]-N-isopropylquinazoline-7-carboxamide] | 456
O=C(NC1CCS(=O)(=O)C1)c1ccc2cnc(N[C@H]3CC[C@H](O)CC3)nc2c1 (stereo partly drawn) [Example 79, N-(1,1-dioxidotetrahydro-3-thienyl)-2-[(trans-4-hydroxycyclohexyl)amino]quinazoline-7-carboxamide] | 292
O=C(NCc1ccccc1)c1ccc2cnc(N[C@H]3CC[C@H](O)CC3)nc2c1 [Example 81, N-benzyl-2-[(trans-4-hydroxycyclohexyl)amino]quinazoline-7-carboxamide] | 63
O=C(NCCc1ccccc1)c1ccc2cnc(N[C@H]3CC[C@H](O)CC3)nc2c1 [Example 82, 2-[(trans-4-hydroxycyclohexyl)amino]-N-(2-phenylethyl)quinazoline-7-carboxamide] | 235
CC(C)NC(=O)c1ccc2cnc(N[C@H]3CC[C@H](O)CC3)nc2c1 [Example 83, 2-[(trans-4-hydroxycyclohexyl)amino]-N-isopropylquinazoline-7-carboxamide] | 247
O=C(c1ccc2cnc(N[C@H]3CC[C@H](O)CC3)nc2c1)N1CCC[C@H]1CO [Example 85, trans-4-[(7-{[(2S)-2-(hydroxymethyl)pyrrolidin-1-yl]carbonyl}quinazolin-2-yl)amino]cyclohexanol] | 3010

More lines, now with the values ahead:

Ki [nM] | Compound
220 | O=C(NCc1ccccn1)c1ccc2cnc(N[C@H]3CC[C@H](O)CC3)nc2c1 [Example 86, 2-[(trans-4-hydroxycyclohexyl)amino]-N-(pyridin-2-ylmethyl)quinazoline-7-carboxamide]
60 | C[C@@H](NC(=O)c1ccc2cnc(N[C@H]3CC[C@H](O)CC3)nc2c1)c1ccccc1 [Example 87, 2-[(trans-4-hydroxycyclohexyl)amino]-N-[(1R)-1-phenylethyl]quinazoline-7-carboxamide]
114 | O=C(NCc1ccc(F)cc1)c1ccc2cnc(N[C@H]3CC[C@H](O)CC3)nc2c1 [Example 88, N-(4-fluorobenzyl)-2-[(trans-4-hydroxycyclohexyl)amino]quinazoline-7-carboxamide]
269 | CC(C)(CN1CCOCC1)NC(=O)c1ccc2cnc(N[C@H]3CC[C@H](O)CC3)nc2c1 [Example 89, N-(1,1-dimethyl-2-morpholin-4-ylethyl)-2-[(trans-4-hydroxycyclohexyl)amino]quinazoline-7-carboxamide]
643 | CC(=O)N1CCC(CNC(=O)c2ccc3cnc(N[C@H]4CC[C@H](O)CC4)nc3c2)CC1 [Example 91, N-[(1-acetylpiperidin-4-yl)methyl]-2-[(trans-4-hydroxycyclohexyl)amino]quinazoline-7-carboxamide]
379 | O=C(NCC1CCCOC1)c1ccc2cnc(N[C@H]3CC[C@H](O)CC3)nc2c1 (stereo partly drawn) [Example 92, 2-[(trans-4-hydroxycyclohexyl)amino]-N-(tetrahydro-2H-pyran-3-ylmethyl)quinazoline-7-carboxamide]
31 | CC[C@@H](NC(=O)c1ccc2cnc(N[C@H]3CC[C@H](O)CC3)nc2c1)c1ccccc1 [Example 93, 2-[(trans-4-hydroxycyclohexyl)amino]-N-[(1R)-1-phenylpropyl]quinazoline-7-carboxamide]
148 | O=C(NC1CCc2ccccc21)c1ccc2cnc(N[C@H]3CC[C@H](O)CC3)nc2c1 (stereo partly drawn) [Example 94, N-(2,3-dihydro-1H-inden-1-yl)-2-[(trans-4-hydroxycyclohexyl)amino]quinazoline-7-carboxamide]
74 | O=C(N[C@H](CO)c1ccccc1)c1ccc2cnc(N[C@H]3CC[C@H](O)CC3)nc2c1 [Example 95, 2-[(trans-4-hydroxycyclohexyl)amino]-N-[(1S)-2-hydroxy-1-phenylethyl]quinazoline-7-carboxamide]
55 | COc1ccccc1C(CO)NC(=O)c1ccc2cnc(N[C@H]3CC[C@H](O)CC3)nc2c1 (stereo partly drawn) [Example 97, 2-[(trans-4-hydroxycyclohexyl)amino]-N-[2-hydroxy-1-(2-methoxyphenyl)ethyl]quinazoline-7-carboxamide]
33 | O=C(NC(CO)c1ccccc1F)c1ccc2cnc(N[C@H]3CC[C@H](O)CC3)nc2c1 (stereo partly drawn) [Example 98, N-[1-(2-fluorophenyl)-2-hydroxyethyl]-2-[(trans-4-hydroxycyclohexyl)amino]quinazoline-7-carboxamide]
18 | O=C(NC(CO)c1ccccc1Cl)c1ccc2cnc(N[C@H]3CC[C@H](O)CC3)nc2c1 (stereo partly drawn) [Example 99, N-[1-(2-chlorophenyl)-2-hydroxyethyl]-2-[(trans-4-hydroxycyclohexyl)amino]quinazoline-7-carboxamide]
120 | O=C(NC(CO)c1ccccn1)c1ccc2cnc(N[C@H]3CC[C@H](O)CC3)nc2c1 (stereo partly drawn) [Example 100, 2-[(trans-4-hydroxycyclohexyl)amino]-N-(2-hydroxy-1-pyridin-2-ylethyl)quinazoline-7-carboxamide]
94 | NC[C@@H](NC(=O)c1ccc2cnc(N[C@H]3CC[C@H](O)CC3)nc2c1)c1ccccc1 [Example 101, N-[(1S)-2-amino-1-phenylethyl]-2-[(trans-4-hydroxycyclohexyl)amino]quinazoline-7-carboxamide]
992 | O=C(c1cccc2cnc(N[C@H]3CC[C@H](O)CC3)nc12)N1CCOCC1 [Example 102, trans-4-{[8-(morpholin-4-ylcarbonyl)quinazolin-2-yl]amino}cyclohexanol]
176 | CC(C)NC(=O)c1cccc2cnc(N[C@H]3CC[C@H](O)CC3)nc12 [Example 103, 2-[(trans-4-hydroxycyclohexyl)amino]-N-isopropylquinazoline-8-carboxamide]
66 | CC(C)(CO)NC(=O)c1cccc2cnc(N[C@H]3CC[C@H](O)CC3)nc12 [Example 104, 2-[(trans-4-hydroxycyclohexyl)amino]-N-(2-hydroxy-1,1-dimethylethyl)quinazoline-8-carboxamide]
